In brackets after ≈: the same amount, converted by molar mass.
Columns and labels:
broiler chickens = system: broiler chickens
Protocol: The crude methionine previously obtained in solid form is added to a basic feed for broiler chickens.
The basic feed has the following composition:
The animals are divided up into groups and fed with the basic feed as control, or with a feed supplemented with crude methionine according to the invention, and then weighed at 1 day, 14 days and 28 days.

physchem = assay: physchem
Source text: The third step consists in crystallizing the methionine so as to recover the crude methionine in solid form. This crystallization step can be carried out by means of technology chosen from the group consisting of crystallization by cooling, crystallization by evaporation-crystallization and adiabatic crystallization. The applicant company recommends using evaporation-crystallization. If evaporation-crystallization is selected, the applicant company recommends pre-concentrating the crude methionine solution by vacuum evaporation using a falling-film evaporator in order to approach supersaturation. The pre-concentrated solution is therefore transferred into a crystallizer of Draft tube type, for example, so as to be further concentrated and crystallized therein. […] Under these conditions, and by virtue of the removal of the soluble impurities, the solid methionine crystallizes in the form of spongy spheres which are easy to separate from the mother liquors.

Row | solubility (physchem; 35 °C) | supersaturation (physchem; at 50° C.) | SMILES | optimum efficiency, added methionine (broiler chickens; added to basic feed) | optimum efficiency, methionine in the final feed (broiler chickens; basic feed has a methionine content of about 0.29%)
1 | – | – | CSCCC(N)C(=O)O (racemic) [DL-methionine of chemical origin, DL-methionine] | approximately 0.19% | approximately 0.48%
2 | ~70 mg/mL (≈ 469 mM) | 80 g/L | CSCC[C@H](N)C(=O)O [methionine, L-Methionine] | – | –
